These results are taken from article PMC4669708 (Cell Death & Disease, 2015).

Common to all, as to experiment: c-ponatinib pulldown LC-MS/MS
Format in all cases: binding

One assay deals with T1, CCT4 (Homo sapiens, UniProt P50991).
T1 sequence (P50991 1-539): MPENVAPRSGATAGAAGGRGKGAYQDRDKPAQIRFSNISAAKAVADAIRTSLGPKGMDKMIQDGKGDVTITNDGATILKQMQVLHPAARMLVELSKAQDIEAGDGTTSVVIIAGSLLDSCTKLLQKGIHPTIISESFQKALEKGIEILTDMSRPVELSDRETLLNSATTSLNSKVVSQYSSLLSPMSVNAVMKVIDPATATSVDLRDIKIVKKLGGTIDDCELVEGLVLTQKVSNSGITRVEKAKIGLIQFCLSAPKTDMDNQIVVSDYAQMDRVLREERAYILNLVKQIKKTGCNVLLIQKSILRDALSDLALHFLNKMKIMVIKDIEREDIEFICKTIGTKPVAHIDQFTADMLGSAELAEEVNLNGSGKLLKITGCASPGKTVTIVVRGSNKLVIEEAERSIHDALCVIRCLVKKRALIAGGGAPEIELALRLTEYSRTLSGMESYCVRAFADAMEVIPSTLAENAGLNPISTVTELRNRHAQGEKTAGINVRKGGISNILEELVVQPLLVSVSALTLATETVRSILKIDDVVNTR
The method, boiled down: (§1)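 c-Ponatinib (25 nmol) immobilized on NHS-Sepharose was incubated with 10 mg whole cell lysate per replicate, in duplicate. Eluates were reduced, alkylated, trypsin-digested and analysed by gel-free 1D LC-MS/MS. Specificity was scored from Mascot, Phenyx and spectral counts, with competition by free compound.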

The target in another assay is T2, IRAK4 (Homo sapiens, UniProt Q9NWZ3).
T2 sequence (Q9NWZ3 1-460): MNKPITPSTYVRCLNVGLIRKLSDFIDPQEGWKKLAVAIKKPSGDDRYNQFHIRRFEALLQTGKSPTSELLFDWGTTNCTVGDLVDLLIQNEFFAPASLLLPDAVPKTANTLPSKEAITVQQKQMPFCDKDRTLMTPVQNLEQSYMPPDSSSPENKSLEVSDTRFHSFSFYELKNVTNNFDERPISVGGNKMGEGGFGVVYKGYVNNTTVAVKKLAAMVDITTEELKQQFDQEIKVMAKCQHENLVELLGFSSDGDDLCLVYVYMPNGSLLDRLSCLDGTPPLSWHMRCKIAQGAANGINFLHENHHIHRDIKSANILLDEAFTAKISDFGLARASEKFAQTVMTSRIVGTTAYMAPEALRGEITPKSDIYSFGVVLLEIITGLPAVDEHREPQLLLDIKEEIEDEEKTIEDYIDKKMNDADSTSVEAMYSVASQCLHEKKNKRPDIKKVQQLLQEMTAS
The method, boiled down:
as §1

A further assay concerns the target JAK2 (Homo sapiens, UniProt O60674). Summed up: as §1
In another assay the target is MELK (Homo sapiens, UniProt Q14680). The method, boiled down: as §1
MELK, sequence (Q14680 whole entry): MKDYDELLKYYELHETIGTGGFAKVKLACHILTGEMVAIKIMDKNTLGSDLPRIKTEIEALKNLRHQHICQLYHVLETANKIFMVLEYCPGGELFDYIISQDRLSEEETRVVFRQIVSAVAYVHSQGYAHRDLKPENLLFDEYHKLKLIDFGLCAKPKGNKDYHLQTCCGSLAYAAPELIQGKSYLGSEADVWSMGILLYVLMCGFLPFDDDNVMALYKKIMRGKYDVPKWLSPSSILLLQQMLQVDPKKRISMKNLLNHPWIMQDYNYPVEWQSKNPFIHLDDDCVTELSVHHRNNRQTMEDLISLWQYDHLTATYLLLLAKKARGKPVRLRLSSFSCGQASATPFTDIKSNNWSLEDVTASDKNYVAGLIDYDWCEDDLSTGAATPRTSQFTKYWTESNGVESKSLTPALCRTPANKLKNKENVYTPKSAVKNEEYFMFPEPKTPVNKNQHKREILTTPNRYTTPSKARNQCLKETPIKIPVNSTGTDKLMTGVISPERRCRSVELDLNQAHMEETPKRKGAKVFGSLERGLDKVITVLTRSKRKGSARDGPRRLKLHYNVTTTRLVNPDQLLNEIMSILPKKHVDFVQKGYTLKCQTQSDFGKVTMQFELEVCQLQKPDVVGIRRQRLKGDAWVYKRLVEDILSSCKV

JAK2, sequence (O60674 whole entry): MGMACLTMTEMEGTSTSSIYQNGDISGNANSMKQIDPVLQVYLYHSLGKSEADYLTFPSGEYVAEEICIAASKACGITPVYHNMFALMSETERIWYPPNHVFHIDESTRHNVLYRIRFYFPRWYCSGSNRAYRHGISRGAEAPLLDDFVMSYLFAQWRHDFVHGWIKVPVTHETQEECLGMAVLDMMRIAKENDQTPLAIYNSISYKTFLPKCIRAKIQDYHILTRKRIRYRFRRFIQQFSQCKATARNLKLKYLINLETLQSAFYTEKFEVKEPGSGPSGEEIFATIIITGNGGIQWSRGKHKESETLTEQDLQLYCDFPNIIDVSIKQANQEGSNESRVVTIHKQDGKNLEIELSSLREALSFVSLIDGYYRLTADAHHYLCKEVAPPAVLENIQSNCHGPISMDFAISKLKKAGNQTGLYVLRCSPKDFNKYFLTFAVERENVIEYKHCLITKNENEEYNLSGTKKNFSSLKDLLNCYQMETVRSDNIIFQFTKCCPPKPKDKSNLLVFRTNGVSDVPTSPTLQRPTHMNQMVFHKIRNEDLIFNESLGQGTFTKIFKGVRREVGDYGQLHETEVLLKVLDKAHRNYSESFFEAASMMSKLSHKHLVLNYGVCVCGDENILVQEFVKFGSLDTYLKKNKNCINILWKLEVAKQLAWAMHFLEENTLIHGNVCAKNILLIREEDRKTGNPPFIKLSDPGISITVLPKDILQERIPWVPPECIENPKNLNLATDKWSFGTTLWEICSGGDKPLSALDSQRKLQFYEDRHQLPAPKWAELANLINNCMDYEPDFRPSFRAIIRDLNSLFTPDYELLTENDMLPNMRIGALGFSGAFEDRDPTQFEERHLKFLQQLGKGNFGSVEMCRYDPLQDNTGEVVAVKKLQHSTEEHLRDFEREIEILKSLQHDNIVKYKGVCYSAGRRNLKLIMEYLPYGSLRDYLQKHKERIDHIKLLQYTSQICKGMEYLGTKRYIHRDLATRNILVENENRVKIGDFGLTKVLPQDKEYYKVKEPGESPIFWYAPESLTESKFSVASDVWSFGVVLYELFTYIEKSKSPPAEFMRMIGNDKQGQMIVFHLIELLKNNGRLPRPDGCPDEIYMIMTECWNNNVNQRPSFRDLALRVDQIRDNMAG

For the molecule `Cc1ccc(C(=O)Nc2ccc(CN3CCN(CCCN)CC3)c(C(F)(F)F)c2)cc1C#Cc1cnc2cccnn12` [c-ponatinib], the “Av. SC comp.” value on CCT4 (+ free ponatinib) came out at 0; at IRAK4 (+ free ponatinib) it was 2.5; on JAK2 (+ free ponatinib) it was 0; at MELK (+ free ponatinib) it was 1. Further, the “Total SC comp.” value on CCT4 (+ free ponatinib) turned out to be 0; on IRAK4 (+ free ponatinib) it was 10; at JAK2 (+ free ponatinib), 0; on MELK (+ free ponatinib) it was 4. For the same molecule, the “Av. SC” value on CCT4 (no competitor) was determined as 3.5; at IRAK4 (no competitor), 8.5; on JAK2 (no competitor), 2.25; on MELK (no competitor), 5. In addition, the “Total SC” value stood at 14 on CCT4 (no competitor), 34 on IRAK4 (no competitor), 9 on JAK2 (no competitor) and 20 at MELK (no competitor).
